Laboratory results as given in PubChem BioAssay (NCI).
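Interpolation was linear, between the two tested concentrations surrounding the appropriate level; five concentrations were tested over 48 hours in 96-well plates. At the TGI there is no net growth.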

Columns and labels:
Test in all cases: inhibition of tumour cell growth, NCI panel, 48 h
MDA-MB-231 breast = tested on: MDA-MB-231 breast
M14 melanoma = tested on: M14 melanoma
NCI-H226 lung = tested on: NCI-H226 lung
RXF 393 renal = tested on: RXF 393 renal
RPMI-8226 leukemia = tested on: RPMI-8226 leukemia
EKVX NSCLC = tested on: EKVX NSCLC
SNB-75 CNS = tested on: SNB-75 CNS
T-47D breast = tested on: T-47D breast
KM12 colon = tested on: KM12 colon
COLO 205 colon = tested on: COLO 205 colon
MALME-3M melanoma = tested on: MALME-3M melanoma
HCT-116 colon = tested on: HCT-116 colon
IGROV1 ovarian = tested on: IGROV1 ovarian
K-562 leukemia = tested on: K-562 leukemia
CCRF-CEM leukemia = tested on: CCRF-CEM leukemia

SMILES: CC(C)CC(NC=O)C(=O)NC(Cc1ccccc1)NC(=O)CNC(=O)C(C)NC(=O)OC(C)(C)C (stereo not drawn)
- TGI (MDA-MB-231 breast): > 100 µM
- TGI (M14 melanoma): > 100 µM
- TGI (NCI-H226 lung): > 100 µM
- TGI (RXF 393 renal): > 100 µM
- TGI (RPMI-8226 leukemia): > 100 µM
- TGI (EKVX NSCLC): > 100 µM
- TGI (SNB-75 CNS): > 100 µM
- TGI (T-47D breast): > 100 µM
- TGI (KM12 colon): > 100 µM
- TGI (COLO 205 colon): > 100 µM
- TGI (MALME-3M melanoma): > 100 µM
- TGI (HCT-116 colon): > 100 µM
- TGI (IGROV1 ovarian): > 100 µM
- TGI (K-562 leukemia): > 100 µM

SMILES: O=C1NC(=O)/C(=C/c2ccc(S(=O)(=O)N/N=C/c3ccccc3)cc2)N1
- TGI (MDA-MB-231 breast): > 100 µM
- TGI (M14 melanoma): > 100 µM
- TGI (NCI-H226 lung): > 100 µM
- TGI (RXF 393 renal): > 100 µM
- TGI (CCRF-CEM leukemia): > 100 µM
- TGI (RPMI-8226 leukemia): > 100 µM
- TGI (EKVX NSCLC): > 100 µM
- TGI (SNB-75 CNS): > 100 µM
- TGI (T-47D breast): > 100 µM
- TGI (KM12 colon): > 100 µM
- TGI (COLO 205 colon): > 100 µM
- TGI (MALME-3M melanoma): > 100 µM
- TGI (HCT-116 colon): > 100 µM
- TGI (IGROV1 ovarian): > 100 µM
- TGI (K-562 leukemia): > 100 µM

SMILES: CCn1c(SCC(=O)NNC(=S)Nc2ccc(Cl)cc2)nc2ccccc2c1=O
- TGI (MDA-MB-231 breast): > 100 µM
- TGI (M14 melanoma): > 100 µM
- TGI (NCI-H226 lung): > 100 µM
- TGI (RXF 393 renal): > 100 µM
- TGI (CCRF-CEM leukemia): > 100 µM
- TGI (RPMI-8226 leukemia): 94.8 µM
- TGI (EKVX NSCLC): > 100 µM
- TGI (SNB-75 CNS): > 100 µM
- TGI (T-47D breast): 83 µM
- TGI (KM12 colon): > 100 µM
- TGI (COLO 205 colon): > 100 µM
- TGI (MALME-3M melanoma): > 100 µM
- TGI (HCT-116 colon): > 100 µM
- TGI (IGROV1 ovarian): > 100 µM
- TGI (K-562 leukemia): > 100 µM

SMILES: N=C1/C(=C/c2ccccc2)C(=O)N=C2SC=NN12
- TGI (MDA-MB-231 breast): > 100 µM
- TGI (M14 melanoma): > 100 µM
- TGI (NCI-H226 lung): > 100 µM
- TGI (RXF 393 renal): > 100 µM
- TGI (CCRF-CEM leukemia): > 100 µM
- TGI (RPMI-8226 leukemia): > 100 µM
- TGI (EKVX NSCLC): > 100 µM
- TGI (SNB-75 CNS): > 100 µM
- TGI (T-47D breast): > 100 µM
- TGI (KM12 colon): > 100 µM
- TGI (COLO 205 colon): > 100 µM
- TGI (MALME-3M melanoma): > 100 µM
- TGI (HCT-116 colon): > 100 µM
- TGI (IGROV1 ovarian): > 100 µM
- TGI (K-562 leukemia): > 100 µM

SMILES: C=CCN1C(=O)/C(=C/c2ccccc2)N=C1SC1OC(COC(C)=O)C(OC(C)=O)C(OC(C)=O)C1OC(C)=O (stereo not drawn)
- TGI (MDA-MB-231 breast): 47.7 µM
- TGI (M14 melanoma): > 100 µM
- TGI (RXF 393 renal): 36.6 µM
- TGI (CCRF-CEM leukemia): > 100 µM
- TGI (RPMI-8226 leukemia): > 100 µM
- TGI (EKVX NSCLC): 63.7 µM
- TGI (SNB-75 CNS): 67.8 µM
- TGI (T-47D breast): > 100 µM
- TGI (KM12 colon): > 100 µM
- TGI (MALME-3M melanoma): 62.4 µM
- TGI (HCT-116 colon): 83 µM
- TGI (IGROV1 ovarian): 91.1 µM
- TGI (K-562 leukemia): > 100 µM

SMILES: COc1ccc(C(=O)/C=C/c2ccc(OCC#N)cc2)cc1OC
- TGI (MDA-MB-231 breast): 42.2 µM
- TGI (M14 melanoma): 37.3 µM
- TGI (NCI-H226 lung): 37.9 µM
- TGI (RXF 393 renal): 33.8 µM
- TGI (CCRF-CEM leukemia): 31.3 µM
- TGI (EKVX NSCLC): 36 µM
- TGI (SNB-75 CNS): 22.9 µM
- TGI (T-47D breast): 28.8 µM
- TGI (KM12 colon): 18.5 µM
- TGI (COLO 205 colon): 24.2 µM
- TGI (MALME-3M melanoma): 38.8 µM
- TGI (HCT-116 colon): 17.2 µM
- TGI (IGROV1 ovarian): > 100 µM
- TGI (K-562 leukemia): > 100 µM

SMILES: COc1cc(CCC(=O)O)c2cc3ccccc3cc2c1O
- TGI (MDA-MB-231 breast): 41.4 µM
- TGI (M14 melanoma): 42.6 µM
- TGI (NCI-H226 lung): 78 µM
- TGI (CCRF-CEM leukemia): 13.8 µM
- TGI (RPMI-8226 leukemia): 26.4 µM
- TGI (EKVX NSCLC): 53.1 µM
- TGI (T-47D breast): 36.3 µM
- TGI (KM12 colon): 44.1 µM
- TGI (COLO 205 colon): 36.2 µM
- TGI (MALME-3M melanoma): 32.3 µM
- TGI (HCT-116 colon): 31 µM
- TGI (IGROV1 ovarian): 41.1 µM
- TGI (K-562 leukemia): 42.4 µM

SMILES: c1ccc(N=C2C(=Nc3ccccc3)N(C3CCCCC3)C(=NC3CCCCC3)N2c2ccccc2)cc1
- TGI (MDA-MB-231 breast): > 100 µM
- TGI (M14 melanoma): > 100 µM
- TGI (NCI-H226 lung): > 100 µM
- TGI (RXF 393 renal): > 100 µM
- TGI (RPMI-8226 leukemia): > 100 µM
- TGI (EKVX NSCLC): > 100 µM
- TGI (SNB-75 CNS): > 100 µM
- TGI (T-47D breast): > 100 µM
- TGI (KM12 colon): > 100 µM
- TGI (COLO 205 colon): > 100 µM
- TGI (MALME-3M melanoma): > 100 µM
- TGI (HCT-116 colon): > 100 µM
- TGI (IGROV1 ovarian): > 100 µM
- TGI (K-562 leukemia): > 100 µM
